Experimental data: ChEMBL document CHEMBL4665842, “Sortase A-Inhibitory Coumarins from the Folk Medicinal Plant Poncirus trifoliata” (J Nat Prod, 2020)
In brackets after ≈: the same amount, converted by molar mass. Activity calls are given as the source filed them. No cut-off for these calls is given here.

Key:
[1] = Inhibition of recombinant Staphylococcus aureus ATCC 6538p sortase A using dabcyl-LPETG-edans as substrate incubated for 2 hrs by fluorometric method
Staphylococcus aureus [2] = assay: Inhibition of Staphylococcus aureus Newman sortase A assessed as […] in fibrinogen-mediated cell clumping at 100 uM after 2 hrs
Staphylococcus aureus [3] = assay: Antimicrobial activity against Staphylococcus aureus ATCC 6538p; type: functional
Staphylococcus aureus [4] = assay: Inhibition of Staphylococcus aureus Newman sortase A assessed as […] in fibrinogen-mediated cell clumping after 2 hrs; settings: dose microM 25-100, time 2.0 hrs
Staphylococcus aureus [5] = assay: Inhibition of Staphylococcus aureus Newman sortase A assessed as reduction in bacterial adherence to fibronectin-coated surfaces up to 4 times of IC50 concentration for every 30 mins for 2.5 hrs; settings: time hrs <=2.5

| IC50 [1] | fold change (FC) (Staphylococcus aureus [2]) | MIC (Staphylococcus aureus [3]) | inhibition (Staphylococcus aureus [4]) | inhibition (Staphylococcus aureus [5]) | SMILES |
| --- | --- | --- | --- | --- | --- |
| 47.2 µM | > 2 | > 350 µM | Dose-dependent effect |  | CC(C)(O)[C@H](O)COc1ccc2ccc(=O)oc2c1C[C@H](O)C(C)(C)O |
| 76 µM |  | > 337 µM |  |  | COC(C)(C)[C@H](O)COc1ccc2ccc(=O)oc2c1C[C@H](O)C(C)(C)O |
| 119 µM |  | > 353 µM |  |  | COC(C)(C)[C@H](O)COc1ccc2ccc(=O)oc2c1CC(=O)C(C)C |
| 26.6 µM | > 2 | > 337 µM | Dose-dependent effect | Active | COC(C)(C)[C@@H](O)Cc1c(OC[C@@H](O)C(C)(C)O)ccc2ccc(=O)oc12 |
| 230 µM |  | > 421 µM |  |  | CC(C)(O)[C@H](O)COc1c2ccoc2cc2oc(=O)ccc12 [OXYPEUCEDANIN HYDRATE] |
| 34.5 µM | > 2 | > 368 µM | Dose-dependent effect | Active | CC(C)C(=O)Cc1c(OC[C@@H](O)C(C)(C)O)ccc2ccc(=O)oc12 |
|  |  | 0.18 µM (≈ 0.0629 µg/mL) |  |  | CC1(C)S[C@@H]2[C@H](NC(=O)[C@H](N)c3ccccc3)C(=O)N2[C@H]1C(=O)O [AMPICILLIN] |
| 112 µM |  | > 388 µM |  |  | C=C(C)[C@H](O)COc1ccc2ccc(=O)oc2c1CC(=O)C(C)C |
|  |  | > 790 µM |  |  | O=c1ccc2ccc(O)cc2o1 [UMBELLIFERONE] |
| > 780 µM |  | > 780 µM |  |  | O=C(O)/C=C/c1ccc(O)cc1 [COUMARIC ACID] |

| SMILES | IC50 [1] | fold change (FC) (Staphylococcus aureus [2]) | MIC (Staphylococcus aureus [3]) | inhibition (Staphylococcus aureus [4]) | inhibition (Staphylococcus aureus [5]) |
| --- | --- | --- | --- | --- | --- |
| C=C(C)[C@H](CC/C(C)=C/COc1ccc2ccc(=O)oc2c1)OO | 23.5 µM | > 2 | > 388 µM | Dose-dependent effect |  |
| C/C(=C\COc1ccc2ccc(=O)oc2c1)C/C=C/C(C)(C)OO | 19.1 µM | > 2 | > 388 µM | Dose-dependent effect | Active |
